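Five concentrations, 48 hours, 96-well plates. Here, GI50 denotes the concentration required for 50% inhibition of growth.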 Calls of active or inactive are those of the source. Cut-off read from the data, not from the text of the source: active = GI50 up to about 1.1 µM and inactive = higher.
Assays:
Experiment in all cases: NCI anticancer screen, dose series, 48 h
IGROV-1 = test system: IGROV-1
RPMI-8226 = test system: RPMI-8226
SF-539 = test system: SF-539
LOX IMVI = test system: LOX IMVI
SNB-75 = test system: SNB-75
HCT-116 = test system: HCT-116
SNB-19 = test system: SNB-19
M14 = test system: M14
HOP-92 = test system: HOP-92
K562 = test system: K562
OVCAR-8 = test system: OVCAR-8
SK-MEL-2 = test system: SK-MEL-2
Malme-3M = test system: Malme-3M
NCI-H226 = test system: NCI-H226
SK-OV-3 = test system: SK-OV-3
RXF 393 = test system: RXF 393
UACC-62 = test system: UACC-62
SK-MEL-5 = test system: SK-MEL-5
NCI-H522 = test system: NCI-H522
SK-MEL-28 = test system: SK-MEL-28

Measured: GI50

O=C1N/C(=N/N=C/c2c[nH]c3ccccc23)N/C1=C\c1cccs1
inactive: IGROV-1 > 100 µM | RPMI-8226 40.4 µM | SF-539 > 100 µM | LOX IMVI 56.9 µM | SNB-75 > 100 µM | HCT-116 53.8 µM | SNB-19 14.8 µM | M14 75.3 µM | HOP-92 49 µM | K562 > 100 µM | OVCAR-8 > 100 µM | SK-MEL-2 45.5 µM | Malme-3M 61.8 µM | NCI-H226 > 100 µM | SK-OV-3 38.6 µM | RXF 393 75.3 µM | UACC-62 73.3 µM | SK-MEL-5 70.3 µM | NCI-H522 > 100 µM | SK-MEL-28 > 100 µM

CNS(=O)(=O)NN(C)S(=O)(=O)c1ccc(F)cc1
inactive: IGROV-1 > 100 µM | RPMI-8226 > 100 µM | SF-539 > 100 µM | LOX IMVI 90.2 µM | SNB-75 47 µM | HCT-116 > 100 µM | SNB-19 > 100 µM | M14 > 100 µM | HOP-92 > 100 µM | K562 > 100 µM | OVCAR-8 > 100 µM | SK-MEL-2 > 100 µM | Malme-3M > 100 µM | NCI-H226 > 100 µM | SK-OV-3 > 100 µM | RXF 393 > 100 µM | UACC-62 > 100 µM | SK-MEL-5 > 100 µM | NCI-H522 > 100 µM | SK-MEL-28 > 100 µM

CC1(C)O[C@@H](C[C@]2(C#N)C[C@H](CCl)OC(C)(C)O2)C[C@@H](C#N)O1
inactive: IGROV-1 > 100 µM | RPMI-8226 > 100 µM | SF-539 > 100 µM | LOX IMVI > 100 µM | SNB-75 > 100 µM | HCT-116 > 100 µM | SNB-19 > 100 µM | M14 > 100 µM | HOP-92 78.9 µM | K562 > 100 µM | OVCAR-8 > 100 µM | SK-MEL-2 > 100 µM | Malme-3M > 100 µM | NCI-H226 > 100 µM | SK-OV-3 > 100 µM | RXF 393 > 100 µM | UACC-62 > 100 µM | SK-MEL-5 > 100 µM | NCI-H522 > 100 µM | SK-MEL-28 > 100 µM

C=C1C[C@@H]2C[C@@H](C)CC(O)[C@]2(CCCN)C1O (stereo not given in full)
inactive: IGROV-1 > 100 µM | RPMI-8226 > 100 µM | SF-539 > 100 µM | LOX IMVI > 100 µM | SNB-75 > 100 µM | HCT-116 > 100 µM | SNB-19 > 100 µM | M14 > 100 µM | HOP-92 > 100 µM | K562 > 100 µM | OVCAR-8 > 100 µM | SK-MEL-2 > 100 µM | Malme-3M > 100 µM | NCI-H226 > 100 µM | SK-OV-3 > 100 µM | RXF 393 > 100 µM | UACC-62 > 100 µM | SK-MEL-5 > 100 µM | NCI-H522 > 100 µM | SK-MEL-28 > 100 µM
